Measured values: patent US10336757B2, “Treatment of neurodegenerative diseases through inhibition of HSP90” (Sloan-Kettering Institute for Cancer Research, priority 2006, dated 2019)
Like-named read-outs stand apart in the source and are kept apart here.

Legend:
[1] = tested on: p35; experiment: p35, Tau phosphorylation and Hsp70 in primary rat cortical neurons and COS-7/p35, COS-7/p35/Tau cells; format: cell-based; settings: compared with PU24FC1
From the text: Embryonic primary rat cortical neurons and COS-7 cells transfected with cDNAs corresponding to either p35 alone (COS-7/p35) or both p35 and Tau (COS-7/p35/Tau) are relevant experimental systems to study aberrant neuronal kinase activity because phosphorylation of Tau at putative cdk5 sites is both enhanced in these cells and in embryonic and juvenile brains (50, 52) and is similar to that in AD-afflicted brains (50). […]
To further examine the roles played by Hsp90 in tauopathy, we made use of both PU24FC1 and 17-(allyllamino)-17-demethoxygeldanamycin (17AAG) and investigated their effects on both cdk5/p35 and TauP301L in primary neuronal and COS-7 cell cultures. […] After incubation, cells were harvested and lysed in 2% SDS, and the resulting samples were analyzed by Western blotting.
We detected a dose- and time-dependent degradation of p35 by PU24FC1 in primary neurons, as well as in COS-7/p35 and COS-7/p35/Tau cells. […] Reduction of p35 levels by Hsp90 inhibition affected the activity of the cdk5/p35 complex, as measured using a substrate of cdk5, the histone-H1.

[2] = known Hsp90 inhibitors, cited from earlier work
[3] = cited from earlier work
[4] = biological target: P-glycoprotein (Homo sapiens (Human), UniProt P08183); settings: known Hsp90 inhibitor, cited from earlier work
[5] = tested on: tau phosphorylation at pathological sites; experiment: Tau phosphorylation in AD cellular models; format: cell-based

Chain of P-glycoprotein (P08183 whole entry): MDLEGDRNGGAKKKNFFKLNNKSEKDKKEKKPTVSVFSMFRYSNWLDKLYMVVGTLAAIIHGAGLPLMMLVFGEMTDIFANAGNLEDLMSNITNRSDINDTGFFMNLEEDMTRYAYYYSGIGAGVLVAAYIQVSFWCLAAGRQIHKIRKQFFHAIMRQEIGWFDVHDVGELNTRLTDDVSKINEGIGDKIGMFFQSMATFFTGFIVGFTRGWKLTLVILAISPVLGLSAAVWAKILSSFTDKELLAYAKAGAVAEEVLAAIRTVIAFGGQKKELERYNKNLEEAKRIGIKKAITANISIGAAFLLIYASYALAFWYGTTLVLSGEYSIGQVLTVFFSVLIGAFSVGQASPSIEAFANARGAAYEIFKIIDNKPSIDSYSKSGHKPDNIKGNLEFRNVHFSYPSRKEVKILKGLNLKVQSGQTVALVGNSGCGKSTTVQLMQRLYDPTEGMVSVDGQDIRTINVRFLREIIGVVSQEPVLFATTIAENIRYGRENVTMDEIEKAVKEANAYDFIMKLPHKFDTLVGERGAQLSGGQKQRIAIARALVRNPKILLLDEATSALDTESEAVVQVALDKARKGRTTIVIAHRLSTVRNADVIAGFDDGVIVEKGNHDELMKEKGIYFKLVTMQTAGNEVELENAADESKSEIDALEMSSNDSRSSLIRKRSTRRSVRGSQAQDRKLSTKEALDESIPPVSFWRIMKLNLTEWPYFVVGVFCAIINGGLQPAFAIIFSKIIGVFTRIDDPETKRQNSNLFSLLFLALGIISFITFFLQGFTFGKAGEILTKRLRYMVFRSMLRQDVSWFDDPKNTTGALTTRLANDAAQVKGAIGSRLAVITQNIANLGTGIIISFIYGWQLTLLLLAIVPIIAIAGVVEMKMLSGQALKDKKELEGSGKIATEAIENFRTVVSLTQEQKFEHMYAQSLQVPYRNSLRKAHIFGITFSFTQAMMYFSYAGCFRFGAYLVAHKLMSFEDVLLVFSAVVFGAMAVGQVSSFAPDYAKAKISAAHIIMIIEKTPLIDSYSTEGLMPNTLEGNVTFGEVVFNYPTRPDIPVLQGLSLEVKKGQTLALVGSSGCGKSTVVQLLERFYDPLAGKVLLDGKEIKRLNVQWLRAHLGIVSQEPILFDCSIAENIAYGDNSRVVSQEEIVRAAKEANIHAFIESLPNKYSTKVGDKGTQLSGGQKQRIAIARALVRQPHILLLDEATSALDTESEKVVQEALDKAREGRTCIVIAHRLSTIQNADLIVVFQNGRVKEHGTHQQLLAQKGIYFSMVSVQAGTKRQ

| SMILES | effects on p35 and mTau [1] | crossing of the blood-brain barrier [2] | crossing of the blood-brain barrier ([2]; listed as 17-AAG) | solubility [3] | P-gp substrate [4] | P-gp substrate ([4]; listed as 17-AAG) | tau phosphorylation levels at pathological sites [5] |
| --- | --- | --- | --- | --- | --- | --- | --- |
| C=CCNC1=C2C[C@@H](C)C[C@H](OC)[C@H](O)[C@@H](C)/C=C(\C)[C@H](OC(N)=O)[C@@H](OC)/C=C\C=C(/C)C(=O)NC(=CC1=O)C2=O [Compound 17AAG, 17-(allyllamino)-17-demethoxygeldanamycin] | Analogous effects | do not cross the blood-brain barrier | does not effectively cross the blood brain barrier | poorly soluble | P-gp substrate | P-glycoprotein substrate | – |
| COC1=C2C[C@@H](C)C[C@H](OC)[C@H](O)[C@@H](C)/C=C(\C)[C@H](OC(N)=O)[C@@H](OC)/C=C\C=C(/C)C(=O)NC(=CC1=O)C2=O [geldanamycin] | – | do not cross the blood-brain barrier | – | poorly soluble | – | – | reduced |
| C[C@@H]1C[C@H]2O[C@@H]2/C=C\C=C\C(=O)Cc2c(Cl)c(O)cc(O)c2C(=O)O1 [radicicol] | – | do not cross the blood-brain barrier | – | poorly soluble | – | – | – |
